Laboratory results reported in ChEMBL document CHEMBL1201862, “PubChem BioAssay data set” (2004).
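48-hour exposure; five concentrations; linearly interpolated endpoints. Here, GI50 denotes the concentration required for 50% inhibition of growth.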 Active and inactive are the calls of the source. No stated cut-off is given here; in the data, active = GI50 up to about 1.1 µM and inactive = higher.

Key:
Experiment in all cases: NCI anticancer screen, dose series, 48 h
HT-29 = tested on: HT-29
CCRF-CEM = tested on: CCRF-CEM
UO-31 = tested on: UO-31
A498 = tested on: A498
OVCAR-3 = tested on: OVCAR-3
KM12 = tested on: KM12
NCI-H226 = tested on: NCI-H226
NCI-H23 = tested on: NCI-H23
SK-MEL-5 = tested on: SK-MEL-5
HOP-62 = tested on: HOP-62
COLO 205 = tested on: COLO 205
SK-MEL-2 = tested on: SK-MEL-2
SW-620 = tested on: SW-620
UACC-62 = tested on: UACC-62
OVCAR-5 = tested on: OVCAR-5
LOX IMVI = tested on: LOX IMVI
SF-539 = tested on: SF-539

Measured: GI50

Cc1cccc2c1N(C(=O)/C=C\C(=O)O)C(c1c(C)[nH]c3ccccc13)C2 (configuration not stated)
inactive: HT-29 > 100 µM | CCRF-CEM 34.8 µM | UO-31 > 100 µM | A498 > 100 µM | OVCAR-3 > 10 µM | KM12 33.5 µM | NCI-H226 49.3 µM | NCI-H23 43.8 µM | SK-MEL-5 18.2 µM | HOP-62 > 100 µM | COLO 205 > 10 µM | SK-MEL-2 19.9 µM | SW-620 28.4 µM | UACC-62 18.9 µM | OVCAR-5 > 100 µM

CC1=C(C(=O)Nc2cc(=O)n(C)c(=O)n2C)C(c2ccco2)C(C(=O)Nc2cc(=O)n(C)c(=O)n2C)=C(C)N1
inactive: LOX IMVI > 100 µM | HT-29 > 100 µM | CCRF-CEM > 100 µM | UO-31 > 100 µM | A498 > 100 µM | OVCAR-3 > 100 µM | KM12 > 100 µM | NCI-H226 > 100 µM | NCI-H23 > 100 µM | SF-539 > 100 µM | SK-MEL-5 > 100 µM | HOP-62 41.5 µM | COLO 205 > 100 µM | SK-MEL-2 > 100 µM | SW-620 > 100 µM | OVCAR-5 > 100 µM

O=c1c(-c2ccccc2)c(O)nc2[nH]c3ccccc3n12
inactive: LOX IMVI > 100 µM | HT-29 > 100 µM | CCRF-CEM > 100 µM | UO-31 > 100 µM | A498 > 100 µM | OVCAR-3 > 100 µM | KM12 > 100 µM | NCI-H226 > 100 µM | NCI-H23 > 100 µM | SF-539 > 100 µM | SK-MEL-5 > 100 µM | HOP-62 > 100 µM | COLO 205 > 100 µM | SK-MEL-2 > 100 µM | SW-620 > 100 µM | UACC-62 > 100 µM | OVCAR-5 > 100 µM

COc1ccc(OC)c2[s+]snc12
inactive: LOX IMVI 35.6 µM | HT-29 > 100 µM | CCRF-CEM 36.1 µM | UO-31 29 µM | A498 > 100 µM | OVCAR-3 34.4 µM | KM12 38.6 µM | NCI-H226 > 100 µM | NCI-H23 75.2 µM | SF-539 21.4 µM | SK-MEL-5 19 µM | HOP-62 > 100 µM | COLO 205 > 100 µM | SK-MEL-2 33.8 µM | SW-620 68.2 µM | UACC-62 26.6 µM | OVCAR-5 > 100 µM

COc1cc2c(cc1OC)C(C(=O)c1cccc(OC)c1OC)C(=O)N(C)CC2 (configuration not stated)
inactive: LOX IMVI > 100 µM | HT-29 > 100 µM | CCRF-CEM > 100 µM | UO-31 > 100 µM | A498 > 100 µM | OVCAR-3 > 100 µM | KM12 > 100 µM | NCI-H226 > 100 µM | NCI-H23 > 100 µM | SK-MEL-5 > 100 µM | HOP-62 > 100 µM | COLO 205 > 100 µM | SK-MEL-2 > 100 µM | SW-620 > 100 µM | UACC-62 > 100 µM

CCN(CC)CCNc1ccc2nnn3c4ccccc4c(=O)c1c23
inactive: LOX IMVI 2.86 µM | HT-29 2.51 µM | CCRF-CEM 2.86 µM | UO-31 4.46 µM | A498 11.4 µM | OVCAR-3 5.07 µM | KM12 4.01 µM | NCI-H226 2.01 µM | NCI-H23 5.81 µM | SF-539 6.84 µM | SK-MEL-5 3.08 µM | HOP-62 4.18 µM | COLO 205 3.55 µM | SK-MEL-2 6.85 µM | SW-620 1.43 µM | UACC-62 5.73 µM | OVCAR-5 3.67 µM

COC(=O)/C=C/C1C2C3(CCC(C)C12C)OCCS3 (configuration not stated)
inactive: LOX IMVI > 100 µM | HT-29 > 100 µM | CCRF-CEM 34.3 µM | UO-31 > 100 µM | A498 > 100 µM | OVCAR-3 > 100 µM | KM12 > 100 µM | NCI-H226 > 100 µM | NCI-H23 > 100 µM | SF-539 > 100 µM | SK-MEL-5 > 100 µM | HOP-62 > 100 µM | COLO 205 > 100 µM | SK-MEL-2 > 100 µM | SW-620 > 100 µM | OVCAR-5 > 100 µM

COc1ccc(C2CC(=O)c3c(O)cc(O)cc3O2)cc1O (configuration not stated)
inactive: LOX IMVI > 100 µM | HT-29 > 100 µM | CCRF-CEM > 100 µM | UO-31 58.7 µM | A498 > 100 µM | OVCAR-3 > 100 µM | KM12 > 100 µM | NCI-H226 > 100 µM | NCI-H23 > 100 µM | SF-539 > 100 µM | SK-MEL-5 > 100 µM | HOP-62 > 100 µM | COLO 205 > 100 µM | SK-MEL-2 > 100 µM | SW-620 > 100 µM | UACC-62 > 100 µM | OVCAR-5 > 100 µM

CNS(=O)(=O)NNS(=O)(=O)c1ccc(Br)cc1
inactive: LOX IMVI > 100 µM | HT-29 > 100 µM | CCRF-CEM > 100 µM | UO-31 20.6 µM | A498 > 100 µM | NCI-H226 > 100 µM | NCI-H23 > 100 µM | SF-539 > 100 µM | SK-MEL-5 > 100 µM | HOP-62 > 100 µM | COLO 205 > 100 µM | SK-MEL-2 > 100 µM | SW-620 > 100 µM | UACC-62 > 100 µM | OVCAR-5 > 100 µM

O=C(c1ccccn1)c1nc(-c2ccc(Cl)c(Cl)c2)nc2ccc(Cl)cc12
inactive: HT-29 > 100 µM | CCRF-CEM 71.1 µM | UO-31 56.9 µM | A498 45.1 µM | OVCAR-3 42.7 µM | KM12 > 100 µM | NCI-H226 23.1 µM | NCI-H23 20.3 µM | SF-539 18.1 µM | SK-MEL-5 51.9 µM | HOP-62 21.3 µM | SK-MEL-2 34.3 µM | SW-620 > 100 µM | UACC-62 39.2 µM | OVCAR-5 > 100 µM

O=C(NC12CC3CCC1CC(C3)C2)[C@@H]1CCCN1C(=O)OCc1ccccc1 (some centres not stated)
inactive: LOX IMVI 59 µM | HT-29 36.5 µM | CCRF-CEM 36.5 µM | UO-31 24 µM | A498 27.9 µM | OVCAR-3 89.5 µM | KM12 48.4 µM | NCI-H226 58.9 µM | NCI-H23 43.3 µM | SF-539 > 100 µM | HOP-62 > 100 µM | COLO 205 33.5 µM | SK-MEL-2 40.6 µM | SW-620 77.3 µM | UACC-62 83.6 µM | OVCAR-5 > 100 µM

O=[N+]([O-])c1ccc(Cl)cc1C1SCc2nc3ccccc3n21 (configuration not stated)
inactive: HT-29 > 100 µM | CCRF-CEM 34.8 µM | UO-31 22.1 µM | A498 23.6 µM | OVCAR-3 54.1 µM | KM12 41.9 µM | NCI-H23 27.6 µM | SF-539 > 100 µM | SK-MEL-5 27.7 µM | HOP-62 > 100 µM | COLO 205 61.1 µM | SK-MEL-2 62.4 µM | SW-620 50.6 µM | UACC-62 61.8 µM

CC(=O)NC(Cc1ccccc1)C(=S)N1CCCC1 (configuration not stated)
inactive: LOX IMVI > 100 µM | HT-29 > 100 µM | CCRF-CEM > 100 µM | UO-31 > 100 µM | A498 > 100 µM | OVCAR-3 > 100 µM | KM12 > 100 µM | NCI-H226 > 100 µM | NCI-H23 > 100 µM | SF-539 > 100 µM | SK-MEL-5 > 100 µM | HOP-62 > 100 µM | COLO 205 > 100 µM | SK-MEL-2 > 100 µM | SW-620 > 100 µM | UACC-62 > 100 µM | OVCAR-5 > 100 µM

NCCCCN(CCCN)/[N+]([O-])=N\O
inactive: HT-29 > 100 µM | CCRF-CEM > 100 µM | UO-31 > 100 µM | OVCAR-3 > 100 µM | KM12 > 100 µM | NCI-H226 > 100 µM | NCI-H23 > 100 µM | SF-539 > 100 µM | SK-MEL-5 > 100 µM | HOP-62 > 100 µM | COLO 205 > 100 µM | SK-MEL-2 > 100 µM | SW-620 > 100 µM | UACC-62 > 100 µM | OVCAR-5 > 100 µM

O=C1C=CC2(O)OCC3C=C4O[C@@H]5OC6(CCCCC6)O[C@@H]5C4[C@@H]2[C@@H]13 (some centres not stated)
inactive: LOX IMVI 42.6 µM | HT-29 22.3 µM | CCRF-CEM 8.73 µM | UO-31 18.6 µM | A498 72.4 µM | OVCAR-3 24.2 µM | KM12 38.5 µM | NCI-H226 33.6 µM | NCI-H23 23.8 µM | SK-MEL-5 43.5 µM | HOP-62 > 100 µM | COLO 205 15.3 µM | SK-MEL-2 82 µM | SW-620 27.4 µM | UACC-62 32.7 µM | OVCAR-5 31.8 µM

NC(=O)NC1C(C(=O)O)N(Cc2ccccc2)C(=O)N1Cc1ccccc1 (configuration not stated)
inactive: LOX IMVI > 100 µM | HT-29 > 100 µM | CCRF-CEM > 100 µM | UO-31 > 100 µM | OVCAR-3 > 100 µM | KM12 > 100 µM | NCI-H226 > 100 µM | NCI-H23 > 100 µM | SF-539 > 100 µM | SK-MEL-5 > 100 µM | HOP-62 > 100 µM | COLO 205 > 100 µM | SK-MEL-2 > 100 µM | SW-620 > 100 µM | UACC-62 > 100 µM | OVCAR-5 > 100 µM

COc1cc(Nc2cnc3ccc(C(F)(F)F)cc3n2)cc(OC)c1OC
inactive: LOX IMVI 4.02 µM | HT-29 12.2 µM | CCRF-CEM 24.7 µM | UO-31 67.1 µM | OVCAR-3 > 100 µM | NCI-H226 > 100 µM | NCI-H23 > 100 µM | SF-539 32.1 µM | HOP-62 23.9 µM | COLO 205 6.18 µM | SK-MEL-2 24.7 µM | SW-620 71.8 µM | OVCAR-5 > 100 µM
